{"source": "patent US20180051284A1", "about": "“INHIBITORS OF MIR-17-92 CLUSTER FOR ANTI-TUMOR ACTIVITY IN MULTIPLE MYELOMA AND OTHER MALIGNANCIES” (priority 2014, published 2018)", "key": {"[1]": {"test_system": "panel of MM cell lines", "test": "CCK-8 cell growth analysis of a panel of MM cell lines after transfection", "format": "cell-based, Human", "conditions": "transfection 50-25-12,5 nM; up to 96 hours", "description": "(§1) 3×10^5 cells were transfected using Neon Transfection System (Invitrogen, Calif.,U.S.), (2 pulses at 1150, 30ms). The transfection efficiency evaluated by flow-cytometric analysis relative to a FAM dye—labeled anti-miR—negative control reached 85% to 90%.\n(§2) Cells were seeded in 100 μL (suspension cell lines) or 50 μL (adherent cell lines) of culture medium at a density ranging from 0,5 to 2,5×10^3 cells per well. Survival was evaluated by both Cell Counting Kit-8 colorimetric assay (CCK-8, Dojindo Molecular Technologies, Japan) and CellTiter-Glo Luminescent Cell Viability Assay (Promega Madison, Wis., USA). Assays were performed according to the manufacturer's instructions. The optical density (OD) was evaluated at wave length of 450 nm. Both OD and luminescence were recorded with the GloMax-multi detection system (Promega, Madison, Wis., USA)."}, "[2]": {"test_system": "RPMI-8226, KMS-12-BM and NCI-H929 MM cells", "test": "CCK-8 cell growth assay after transfection", "format": "cell-based, Human", "conditions": "transfection with 25 nM", "description": "as §1, §2"}, "[3]": {"test_system": "miR-17-92 primary transcript (pri-miRs) and mature miR-17-92 cluster members", "test": "q-RT-PCR of miR-17-92 member family and two pri-miRs after transfection of MM cells", "format": "cell-based, Human", "conditions": "48 hours after transfection with 25 nM", "description": "as §1\nReverse transcription (RT) of both primary and mature miRNAs was performed using TaqMan® MicroRNA Assays, following a procedure for multiplexing the RT step (Life Technologies, Publication Part Number 4465407). Briefly, 500 ng of total RNA, prepared with the TRIzol® Reagent (Invitrogen), underwent reverse transcription by the Taq-Man® MicroRNA RT Kit. In this reaction, the RT primer pool was composed by the individual RT primers for each microRNA belonging to the miR-17-92 cluster and two RT primers to allow the reverse transcription of the miR-17-92 primary miRNA. Real-time PCR was performed using TaqMan® MicroRNA Assays together with the TaqMan® Universal PCR Master Mix on an ViiA7 System (Life Technologies). Both primary and mature microRNAs expressions were relatively quantified using the 2-ΔΔCt method (Applied Biosystems User Bulletin No. 2), and expressed as the relative quantity of target miRNA normalized to the RNU44 (assay ID 001094) housekeeping gene. Comparative real-time polymerase chain reaction (RT-PCR) was performed in triplicate, including no-template controls. Relative expression was calculated using the comparative cross threshold (Ct) method.\nBy the use of a custom q-RT-PCR plate specifically designed by us to detect all six mature miR-17-92 members and the primary transcript by two different assays (pri-mir-17/18a/19a and pri-mir-19b1/20a/92a1), we quantified in a panel of 11 MM cell lines the levels of the different miRNAs and pri-miRs."}, "[4]": {"test_system": "NCI-H929 MM xenografts", "test": "In vivo anti-MM activity in NCI-H929 xenografted SCID/NOD mice", "description": "Male CB-17 severe combined immunodeficient (SCID) mice (6- to 8-weeks old; Harlan Laboratories, Inc., Indianapolis) were housed and monitored in our Animal Research Facility. All experimental procedures and protocols had been approved by the Institutional Ethical Committee (Magna Graecia University) and conducted according to protocols approved by the National Directorate of Veterinary Services (Italy). In accordance with institutional guidelines, mice were sacrificed when tumors reached 2 cm in diameter or in the event of paralysis or major compromise, to prevent unnecessary suffering. Animal experimental procedures have been performed as in previous reports (Di Martino et al, CCR 2012; Di Martino el al. Oncotarget 2013, Di Martino et al PlosOne 2014). Briefly, mice were subcutaneously inoculated with 5×10^6 NCI-H929 cells and treatments started when palpable tumors became detectable, approximately 3 weeks following injection of MM cells. Treatments were performed intraperitoneally with different schedules in order to reach the Maximun Tolerated Dose (MTD) and a dose-response curve. Mice were also inoculated with 5×10^6 luciferase gene-marked U266, AMO-1, AMO-1/abzb, treatments were performed intraperitoneally (i.p.), and tumor volume were measured by IVIS Lumina II.\nThe tumor sizes were assessed by Caliper measurement. […]"}}, "note": "l = locked nucleic acid (LNA); d = 2'-deoxy (DNA)"}
{"substance": "gapmer_06: LNA/DNA gapmer, SEQ ID 4 (14 mer): +T*+A*+C*T*T*G*C*T*T*G*G*+C*+T*+T; + LNA, * phosphorothioate (antisense TACTTGCTTGGCTT; sugars from the 5' end l3 d8 l3, all phosphorothioate, methylation of C not given here)", "values": [{"measurement": "anti-proliferative activity (CCK-8 assay)", "setting": "[1]", "result": "exerted anti-proliferative activity up to 96 hours after transfection in all myeloma cell lines tested"}, {"measurement": "biological effect on cell growth (CCK-8) compared with single miRNA inhibitors for miR-17/18a/19a/19b/20a/92a", "setting": "[2]", "result": "strongest biological effects"}, {"measurement": "cell growth inhibition (CCK-8 assay)", "setting": "[2]; up to 96 hours, compared among the eight gapmers", "result": "strongest cell growth inhibition"}, {"measurement": "downregulation of primary and mature miRNA sequences (q-RT-PCR)", "setting": "[3]; NCI-H929 and RPMI-8226 cells, relative to RNase-free water", "result": "more effective gapmer to downregulate both primary and mature miRNA sequences"}, {"measurement": "downregulation of pri-miRs and miR-17-92 cluster members (q-RT-PCR)", "setting": "[3]; NCI-H929 cells, vs RNase-free water", "result": "induce downregulation of the two primary transcript and mature single miRNA members"}, {"measurement": "survival (Kaplan-Meier)", "setting": "[4]; intraperitoneal treatment, as compared to saline", "result": "significant prolongation of survival"}, {"measurement": "tumor growth (caliper tumor volume)", "setting": "[4]; intraperitoneally, 75-50-25 μg once weekly or 25-12.5 μg twice weekly, vs saline", "result": "significant (P<0.05) inhibition of tumor growth in a dose dependent-manner"}]}
